Patent US20170143748A1, “ANTI-TUMOR PHARMACEUTICAL APPLICATION OF PENTACYCLIC TRITERPENE SAPONIN COMPOUNDS OF SZECHUAN MELANDIUM ROOT” (priority 2014, published 2017)
“And” between values parts separate entries of the source, which are not always exact repeats. Identical values can stand only once.

What was measured:
HepG2 [1] = test: Detection of apoptosis (Annexin V-FITC/PI flow cytometry); type: cell-based, Human; conditions: HepG2, 80 μg/mL, 24 hours
Protocol: (§1) Human resources hepatoma cell line HepG2 was provided by Cancer Hospital, Chinese Academy of Medical Sciences. […] Cells were passaged every 2 or 3 days, and all the experiments were carried out on exponentially growing cells.
Following the incubation of cells in the flasks with drug for 24 hours, cell suspension was harvested with 5×10^5 to 1×10^6 cells/mL, and taken with 1 mL for centrifuging for 10 min at 1000 RPM and 4° C. The supernatant was replaced carefully, added with 1 mL cold phosphate-buffered saline, gently shaken for resuspension, recentrifuged and replaced the supernatant. The cells were resuspended with 200 μl Binding Buffer, added with 10 μl Annexin V-FITC and 5 μl PI, gently shaken and reacted for 15 min at Room temperature, then added with 300 μl Binding Buffer and finally measured immediately with Flow cytometry.

HepG2 [2] = test: Cell cycle detection (PI flow cytometry); type: cell-based, Human
Protocol: as §1
[…] Cells were blown and centrifuged at 1000 RPM for 5 mins. The supernatant was removed and 1-2 mL cold phosphate-buffered saline was added, blown and centrifuged again. The precipitate was blew and then fixed with −20° C. 70% alcohol (1-2 mL), centrifuged again. Alcohol was removed, and the precipitate was washed two times with phosphate-buffered saline, blown for suspension and filtered through 100 mesh gauze filter to flow detection tube, centrifuged at 1000 RPM for 5 mins. The supernatant was abandoned and cells were stained with PI dye (50 μg/mL), vibrated and stained at least 30 mins in darkness, detected with Flow cytometry.

HepG2 human heptoma = test: Anti-HepG2 human heptoma in BALB/c (nu/nu) nude mice; conditions: for body weight of HepG2-bearing nude mice / tumor volume of HepG2-bearing nude mice: mg/kg BW: total saponins 1.5, Compound 1, combination 1 & 39, Cytoxan 40, Sc
Protocol: 70 male BALB/c (nu/nu) nude mice (18-20 g, License NO. SCXK (BJ) 2009-0017, National Institutes for Food and Drug Control.) were adaptively bred for one week, and then used in the following experiment.
Human resources hepatoma cell line HepG2 was cultured in RPMI-1640 medium containing 100 U/mL Penicillin and 100 μg/mL Streptomycin with 10% fetal bovine serum and maintained at 37° C. in a humidified atmosphere (5% CO2 and […]).
70 BALB/c (nu/nu) nude mice were adaptively bred for 1 week, HepG2 cells were inoculated subcutaneously into the back of nude mice, 1×10^7 cells per mouse. […] 3 days after inoculation, mice of every therapeutic group were all given the relevant compounds or drugs for 3 weeks, and others were given isodose physiological saline.
The body weight and the size of tumor were measured and recorded weekly. The tumor volume was calculated with the formula below:
tumor volume V=π/6×a×b^2 (a, b means the transverse and longitudinal length of tumor)
At the end of administration, mice were fastened for 8 hours, weighed the fasting body weight, dropped off eyeball to collect blood, centrifuged and collected serum for next experiment. The tumors were departed and weighed. Tumor Index and inhibition rate were calculated as below:
Tumor Index=Tumor mass (mg)/body weight of animal (g)
Inhibition rate=(Average tumor massControl group−Average tumor massadministration group)/Average tumor massControl group×100%
Mice in the model group were injected with sterile water (10 ml/kg BW), Sc. All the animals were treated at 9 am for 3 weeks.
Determination of body weights: Body weights of animals were weighed and recorded once a week.
Tumor measurement: The transverse and longitudinal lengths of tumor were measured with vernier caliper weekly.
End of the experiment: After mice being administrated for 3 weeks (21 days), the experiment was terminated.

[3] = tested on: BGC823 human gastric adenocarcinoma; test: Anti-BGC823 human gastric adenocarcinoma in BALB/c (nu/nu) nude mice; type: in vivo; conditions: for body weight of BGC823-bearing nude mice / tumor volume of BGC823-bearing nude mice: mg/kg BW: total saponins 1.5, Compound 1, combination 1 & 19, 5-FU 20, Sc; for body weight of BGC823-bearing nude mice: in g (unit assumed)
Protocol: Human resources gastric adenocarcinoma cell line BGC823 was cultured in the same condition as the experiment 4.
The body weight and the tumor volume were measured and recorded weekly. The tumor volume was calculated according to the formula below.
Tumors were departed and weighed. Tumor Index and inhibition rate were calculated as below: […]

HT29 human colon cancer = test: Anti-HT29 human colon cancer in BALB/c (nu/nu) nude mice; type: in vivo; conditions: for body weight of HT29-bearing nude mice / tumor volume of HT29-bearing nude mice: mg/kg BW: total saponins 1.5, Compound 1, combination 1 & 19, PTX 20, Sc
Protocol: Human resources Colon cancer cell line HT29 was cultured in the same condition as the experiment 4. […] Mice were randomly assigned into 7 groups: […] The body weight and the tumor volume were measured and recorded weekly. The tumor volume was calculated according to the formula below. […] The tumors were departed and weighed.

With COC(=O)C1CC(O[C@H]2CC[C@]3(C)[C@H]4C=CC5[C@@H]6CC(C)(C)CC[C@]6(C(=O)OC6OC(C)C(OC(=O)/C=C/c7ccc(C)cc7)C(OC(C)=O)C6OC6CC(C)C(O)C(O)C6O)[C@H](O)C[C@@]5(C)[C@]4(C)CC[C@H]3[C@]2(C)C=O)C(OC2OC(CO)C(O)C(O)C2O)C(OC2OCC(O)C(O)C2O)C1O (stereo partly shown) [Compound (2), sinocrassuloside VII] the early apoptosis signal (HepG2 [1]; control 1.5%) was 8.5%, the “number of necrotic cells” value (HepG2 [1]; control 2.0%) was 6.6% and the “cells in G0/G1” value (HepG2 [2]; 20 μg/mL, 24 h) was 67.26%. The “cells in G2/M” value (HepG2 [2]; 20 μg/mL, 24 h) was 15.57%, the “cells in S” value (HepG2 [2]; 20 μg/mL, 24 h) was 17.22% and the “cells in G0/G1” value (HepG2 [2]; 20 μg/mL, 48 h) was 60.62%. The “cells in G2/M” value (HepG2 [2]; 20 μg/mL, 48 h) was 23.27%, the “cells in S” value (HepG2 [2]; 20 μg/mL, 48 h) was 16.11% and the “cells in G0/G1” value (HepG2 [2]; 20 μg/mL, 72 h) was 59.77%. The “cells in G2/M” value (HepG2 [2]; 20 μg/mL, 72 h) was 13.96%, the “cells in S” value (HepG2 [2]; 20 μg/mL, 72 h) was 26.27% and the “cells in G0/G1” value (HepG2 [2]; 40 μg/mL, 24 h) was 52.52%. For the same molecule, the “cells in G2/M” value (HepG2 [2]; 40 μg/mL, 24 h) was 29.95%, the “cells in S” value (HepG2 [2]; 40 μg/mL, 24 h) was 17.53% and the “cells in G0/G1” value (HepG2 [2]; 40 μg/mL, 48 h) was 55.08%. The “cells in G2/M” value (HepG2 [2]; 40 μg/mL, 48 h) was 32.64%, the “cells in S” value (HepG2 [2]; 40 μg/mL, 48 h) was 12.29% and the “cells in G0/G1” value (HepG2 [2]; 40 μg/mL, 72 h) was 63.09%. The “cells in G2/M” value (HepG2 [2]; 40 μg/mL, 72 h) was 20.44%, the “cells in S” value (HepG2 [2]; 40 μg/mL, 72 h) was 16.48% and the “cells in G0/G1” value (HepG2 [2]; 80 μg/mL, 24 h) was 55.19%. For the same molecule, the “cells in G2/M” value (HepG2 [2]; 80 μg/mL, 24 h) was 21.20%, the “cells in S” value (HepG2 [2]; 80 μg/mL, 24 h) was 20.39±2.56% and 20.39% and the “cells in G0/G1” value (HepG2 [2]; 80 μg/mL, 48 h) was 47.28%. The “cells in G2/M” value (HepG2 [2]; 80 μg/mL, 48 h) was 21.77%, the “cells in S” value (HepG2 [2]; 80 μg/mL, 48 h) was 30.95±5.84% and 30.95% and the “cells in G0/G1” value (HepG2 [2]; 80 μg/mL, 72 h) was 49.28%. For the same molecule, the “cells in G2/M” value (HepG2 [2]; 80 μg/mL, 72 h) was 10.39%, the “cells in S” value (HepG2 [2]; 80 μg/mL, 72 h) was 40.34±12.32% and 40.34% and the “body weight of HepG2-bearing nude mice” value (HepG2 human heptoma; 0 W) was 19.50 ± 0.53. The “body weight of HepG2-bearing nude mice” value (HepG2 human heptoma; 1 W) was 21.60 ± 0.84, the “tumor volume of HepG2-bearing nude mice” value (HepG2 human heptoma; 1 W) was 564.84 ± 474.95 and the “body weight of HepG2-bearing nude mice” value (HepG2 human heptoma; 2 W) was 22.40 ± 1.17. For the same molecule, the “tumor volume of HepG2-bearing nude mice” value (HepG2 human heptoma; 2 W) was 841.36 ± 577.72, the “body weight of HepG2-bearing nude mice” value (HepG2 human heptoma; 3 W) was 22.70 ± 0.95 and the “tumor volume of HepG2-bearing nude mice” value (HepG2 human heptoma; 3 W) was 911.76 ± 460.22. For the same molecule, the Inhibition rate (HepG2 human heptoma; HepG2-bearing nude mice, after 3 weeks, from average tumor mass vs model) was 87.42% and 87.32%, the “body weight of BGC823-bearing nude mice” value ([3]; 0 W) was 20.10 ± 1.10 and the “tumor volume of BGC823-bearing nude mice” value ([3]; 1 W) was 796.43 ± 563.35. For the same molecule, the “tumor volume of BGC823-bearing nude mice” value ([3]; 2 W) was 1186.34 ± 625.68, the “body weight of BGC823-bearing nude mice” value ([3]; 2 W) was 23.00 ± 0.82 and the “tumor volume of BGC823-bearing nude mice” value ([3]; 3 W) was 1654.23 ± 891.57. For the same molecule, the “body weight of BGC823-bearing nude mice” value ([3]; 3 W) was 23.40 ± 1.58, the Inhibition rate ([3]; BGC823-bearing nude mice, after 3 weeks, from average tumor mass vs model) was 79.63% and the “body weight of HT29-bearing nude mice” value (HT29 human colon cancer; 0 W) was 20.10 ± 1.35. For the same molecule, the “body weight of HT29-bearing nude mice” value (HT29 human colon cancer; 1 W) was 22.10 ± 0.90, the “tumor volume of HT29-bearing nude mice” value (HT29 human colon cancer; 1 W) was 639.16 ± 539.16 and the “body weight of HT29-bearing nude mice” value (HT29 human colon cancer; 2 W) was 22.90 ± 0.90. The “tumor volume of HT29-bearing nude mice” value (HT29 human colon cancer; 2 W) was 918.54 ± 469.16, the “body weight of HT29-bearing nude mice” value (HT29 human colon cancer; 3 W) was 22.70 ± 1.38 and the “tumor volume of HT29-bearing nude mice” value (HT29 human colon cancer; 3 W) was 859.24 ± 691.16. It also gave an Inhibition rate (HT29 human colon cancer; HT29-bearing nude mice, after 3 weeks, from average tumor mass vs model) of 54.87%.
